The text below walks through data of patent US20030086911A1, “Methods and compositions for the stimulation of human immunodeficiency virus-specific cytotoxic T lymphocytes employing autologous antigen-peripheral blood mononuclear cells” (Department of Health and Human Services, priority 1993, published 2003).

Where only a bound is given, the exact number is not on record here.

The subject of test [1] is BALB/c 3T3 neo-only transfectants (18neo). The test can be described thus: 51Cr-release CTL assay with T1272-specific effectors on peptide-sensitized fibroblast targets. The test is classed as cell-based, BALB/c mice. The note with it: for % specific 51Cr release, Immune spleen cells: 0.1 μM peptide on 18neo targets, effectors spleen cells of 10 μM T1272 peptide-pulsed spleen cell-immunized BALB/c mice restimulated with 0.1 μM T1272; for % specific 51Cr release, Immune spleen cells / % specific 51Cr release, CTL line: E/T 40:1; for % specific 51Cr release, CTL line: 1.0 μM peptide on 18neo targets, short-term T1272-specific BALB/c CTL line (3 weeks in culture); for peptide concentration able to sensitize targets for lysis: titrated in the killing assay, T1272 peptide-immune splenic CTL at 40:1 (FIG. 1C). As for the experimental part: CTL generation: BALB/c (H-2^d) mice were immunized intravenously with 20×10^6 spleen cells pulsed with various concentrations of T1272 peptide for two hours at 37° C. and irradiated at 2,000 rad (by the method of H. Takahashi, Y. Nakagawa, K. Yokomuro, & J. A. Berzofsky, submitted). One week later, immune spleen cells (3×10^6/ml) were restimulated for six days in vitro with various concentrations of T1272 peptide in 10% Rat-T Stim, without Con A (Collaboration Research Incorporated, Bedford, Mass.) in 24-well culture plates in complete T-cell medium (CTM)(14), a 1:1 mixture of RPMI 1640 and Eagle-Hanks amino acid medium containing 10% fetal bovine serum, 2 mM L-glutamine, penicillin (100 U/ ml), streptomycin (100 μg/ml), and 5×10^−5 M 2 mercaptoethanol.
CTL Assay. Cytolytic activity of the restimulated cells was measured as described (15) by using a six-hour assay with various ^51Cr-labeled targets. For testing the peptide specificity of CTL, effectors and ^51CR-labeled targets were mixed with various concentrations of peptide at the beginning of the assay. The percentage specific ^51CR release was calculated as 100(experimental release−spontaneous release)/(maximum release−spontaneous release). Maximum release was determined from supernatants of cells that were lysed by addition of 5% Triton X-100. Spontaneous release was determined from target cells incubated without added effector cells.
To more precisely identify the T-cell epitope recognized by T1272-specific BALB/c CTL, and to test the hypothesis that the response was specific for the neo-antigenic determinant created by the mutation, a series of peptides was synthesized and various concentrations of these peptides were individually added to effectors and ^51Cr-labeled fibroblast targets at the start of the assay culture. We measured the cytotoxic activity of two types of effector cells: spleen cells from mice immunized with peptide-pulsed cells stimulated once in vitro with 0.1 μM T1272 peptide (presumably polyclonal·effector populations), and a short-term CTL line (possibly an oligoclonal population, although only three weeks in culture).
CTL effectos were spleen cells derived from die 10 μM T1272 peptide-pulsed spleen cell-immunized BALB/c mice (restimulated 6 days with 0.1 μM T1272 peptide) (left) or a short-term T1272-specific BALB/c CTL line (after 3 weeks in culture) (right). BALB/c 3T3 neo-only transfectants (18neo) (H-2^d) plus 0.1 μM synthetic peptide were used as targets with BALB/c spleen effectors or with 1.0 μM peptide for the CTL line. […] The effector/target cell ratio was 40:1. The arrow and bold-face amino acids indicate the site of the 135 Cys to Tyr mutation. Underlined amino acids correspond to human p53 residues which differ from the mouse p53.

For test [2], the system named is L-cell (H-2^k) transfectants expressing D^d, L^d and K^d. The test can be described thus: MHC-restriction mapping of T1272 peptide recognition by CTL. The note with it: 0.1 μM peptide T1272, K^d L-cell transfectants (FIG. 2B). The test is classed as cell-based, mouse. As for the experimental part:
MHC-restriction mapping. L-cell (H-2^k) transfectants expressing D^d (T4.8.3 (18), L^d (T1.1.1 (19) and K^d (B4III-2(20)) were used as targets, in the presence or absence of 0.1 μM peptide T1272. neo gene transfected BALB/c 3T3 fibroblasts (18neo) (H-2^d) (21) were used as a positive control, and neo gene-transfected L-cells L28 (H-2^k) (21) were used as a negative target control, also in the presence or absence of peptide.
The BALB/c 3T3 (18neo) fibroblasts (H-2^d) used as targets in these experiments express class I but not class II MHC gene products.
In this experiment, 2×10^3 51Cr-labeled targets were cultured with T1272-immune splenic effector cells (a short-term line stimulated twice with 0.1 μM peptide) at several effector/target cell ratios in the presence or absence of 0.1 μM peptide T1272. L-cell (H-2^k) transfectants expressing D^d (T4.8.3 (18)), L^d (T1.1.1 (19)) and K^d (B4III-2 (20)) were used as targets. neo gene transfected BALB/c 3T3 fibroblasts (isneo) (H-2^d) (21) were used as a positive control, and neo gene-transfected L-cells L28 (H-2^k) (21) were used as a negative target control. Spontaneous release was less than 20% of maximal release. Although background without peptide varied among the different transfectants from experiment to experiment, T1272 peptide-specific lysis was consistently seen only in the cells expressing K^d, in five different experiments. […]

The test system of test [3] is HIV-1-IIIB gp160-gene transfected BALB/c.3T3 fibroblasts. The test can be described thus: CTL induced by i.v. immunization with peptide-pulsed irradiated cells, 51Cr release on gp160 transfectants. The class given is in vivo, BALB/c mice. The note with it: cells pulsed with the 10-mer before immunization; without adding IL-2 exogenously (FIG. 9). As for the experimental part: CTL Generation. Immunizations were carried out either subcutaneously (s.c.) in the base of the tail, or intraperitoneally (i.p.), or intravenously (i.v.) from the tail vein with 27 G needle. Several weeks later, immune spleen cells (5×10^6/ml in 24-well culture plates in complete T-cell medium (a 1:1 mixture of RPMI 1640 and EHAA medium containing 10% FCS, 2 mM L-glutamine, 100 U/ml penicillin, 100 μg/ml streptomycin and 5×10^−5M 2-mercaptoethanol)) were restimulated for 6 days in vitro with mitomycin-C treated HIV-1-IIIB envelope gp160 gene transfected histocompatible BALB/c.3T3 fibroblasts alone or in the presence of 10% Rat Con-A supernatant-containing medium (Rat T-cell Monoclone) (Collaborative Research, Inc., Bedford, Mass.) or 10 U/ml of recombinant mouse IL-2 (rIL-2) (Genzyme, Boston, Mass.).
CTL assay. After culture for 6 days, cytolytic activity of the restimulated cells was measured as previously described (21) using a 6 hr assay with various ^51Cr-labelled targets, as indicated in the figure legends. […] The percent specific ^51Cr release was calculated as 100 (experimental release−spontaneous release)/(maximum release−spontaneous release). Maximum release was determined from supernatants of cells that were lysed by addition of 5% Triton-X 100. Spontaneous release was determined from target cells incubated without added effector cells. […]

Take TYSPALNKMFYQLAKTCPVQL [Peptide T1272]: in test [1], the “% specific 51Cr release, Immune spleen cells” value is 35.4%; the “% specific 51Cr release, CTL line” value was determined as 24.7%; the “peptide concentration able to sensitize targets for lysis” value was less than 0.1 µM. For the same sequence, the “class I MHC restriction of peptide recognition by CTL” value in test [2] is “restricted by the class I molecule K^d”.
“KMFYQLAKTCPVQL [Peptide L14, C-terminal 14 residues of the T1272 peptide]”: in test [1], the “% specific 51Cr release, Immune spleen cells” value is 22.2% and the “% specific 51Cr release, CTL line” value stood at 22.1%.
As for RGPGRAFVTI [Peptide 18IIIB-I-10], the “priming of CD8+ CTL by minimal peptide” value in test [3] was “can prime CD8^+ CTL almost as well as 18IIIB”.
In the case of FYQLAKTCPV [Peptide V10], in test [1], the “% specific 51Cr release, Immune spleen cells” value was 62.7% and the “% specific 51Cr release, CTL line” value amounted to 53.7%.
In the case of ALNKMFYQLAKT [Peptide T12], in test [1], the “% specific 51Cr release, Immune spleen cells” value was found to be 9.7% and the “% specific 51Cr release, CTL line” value is on record as −9.1%.
With TYSPALNKMFYQL [Peptide L13], in test [1], the “% specific 51Cr release, Immune spleen cells” value turned out to be 14.7% and the “% specific 51Cr release, CTL line” value was −8.9%.
Turning to RIQRGPGRAFVTIGK [Peptide P18IIIB], the “peptide concentration able to sensitize targets for lysis” value in test [1] was “not recognized at any concentration”.
